Experimental data taken from PMC5700124 (Scientific Reports, 2017).
Entries after “also recorded” stand apart in the source; their conditions may differ. Where two headings read alike, the source gives them in different places.

Key:
[1] = test system: α7 nicotinic acetylcholine receptors; parameters: method as in PMID 26455500; details: 1.24 mg/kg; cited from earlier work
α2 adrenoceptor = details: anterior forebrain; autoradiography; pH 7.7, 22 °C, mg^2+ 0; blocking of NS phentolamine 10 μM; ref Boyajian et al.[41]; cited from earlier work
plasma proteins [2] = test system: plasma proteins; parameters: method as in PMID 7836362; details: cited from earlier work
α1 and α2 adrenoceptors = test system: α1 and α2 adrenoceptors; parameters: method as in PMID 16153828; details: cited from earlier work
plasma proteins [3] = details: in the circulation; cited from earlier work
α2 adrenoceptor subtypes = test system: α2 adrenoceptor subtypes; parameters: method as in PMID 7908054; details: cited from earlier work
α2 adrenoceptors [4] = assay: PET of [^11C]yohimbine binding in rat brain at baseline and at challenge with unlabeled yohimbine; details: for Binding potentials, BPND, percent-wise change (%) / Volumes of Distribution, VT, percent-wise change (%): COLD vs BASE, individual rats 1-5
[5] = parameters: method as in Jakobsen et al.[14]; details: pigs, ref Jakobsen et al.[14], cited from earlier work
[6] = test system: [^11C]mirtazepin binding in porcine brain; parameters: method as in Smith et al.[34]; details: ref Smith et al.[34], cited from earlier work
[7] = rats; cited from earlier work
α2 adrenoceptors [8] = test system: α2 adrenoceptors; parameters: method as in Jakobsen and colleagues[14]; details: porcine brain, ref Jakobsen and colleagues[14], cited from earlier work
plasma proteins [9] = assay: Plasma ultrafiltration, ex vivo (plasma free fraction fP of [^11C]yohimbine); format: in vitro ADME, rat; details: 0.3 mg/kg yohimbine i.v., P < 0.05
Procedure: In the ex vivo experiment, a separate group of six female Sprague Dawley rats were subjected to plasma ultrafiltration and treated identically to animals that underwent PET acquisition. […] We centrifuged the blood samples in heparinized tubes for 20 min at 4 °C to generate plasma and stored the samples at −50 °C.
To measure fP , we used the Centrifree centrifugal filter device (Millipore, Bedford, MA) with a molecular cutoff of 30 kDa for all samples. […] On the day of fP determination, the plasma samples were thawed in room temperature in 20 min. […] After 10 minutes incubation at room temperature, aliquots of 50 μl of this solution were used to measure the total activity (unfiltered plasma). […] The activity of filtered plasma was determined in triplicates. All samples were counted in a gamma device (Packard Cobra Gamma Counter, Model D5003). […] The correction factor, r, was determined as the ratio of the activity in the phosphate buffer before filtration, Abuffer(total), to the filtered buffer, Abuffer(ultrafiltrate),38 r=Abuffer(total)/Abuffer(ultrafiltrate), from which the plasma-free fraction, fP , was calculated as the ratio of the activity of the filtered plasma, Aplasma(ultrafiltrate), to the unfiltered plasma, Aplama(total), multiplied by the correction factor, r, for recovery,39 fP=rAplasma(ultrafiltrate)/Aplasma(total),

[10] = test system: translocator protein (TSPO); parameters: method as in Hilmer et al.[39]; details: 0.1 ng/kg i.v.; ref Hilmer et al.[39]; cited from earlier work
[11] = CEREB cerebellum, unlabeled yohimbine 0.3 mg/kg i.v.
[12] = CP caudate putamen, unlabeled yohimbine 0.3 mg/kg i.v.
[13] = HYP hypothalamus, unlabeled yohimbine 0.3 mg/kg i.v.
[14] = MC motor cortex, unlabeled yohimbine 0.3 mg/kg i.v.
[15] = OLF olfactory bulb, unlabeled yohimbine 0.3 mg/kg i.v.
[16] = PFC prefrontal cortex, unlabeled yohimbine 0.3 mg/kg i.v.
[17] = SSC somatosensory cortex, unlabeled yohimbine 0.3 mg/kg i.v.
[18] = THAL thalamus, unlabeled yohimbine 0.3 mg/kg i.v.
[19] = unlabeled yohimbine 0.3 mg/kg vs baseline

O=S1(=O)c2cc(N3CCN4CCC3CC4)ccc2-c2cccc(F)c21 [ASEM]
increase of fP of [^18F] DBT-10 [1]: two-fold increase

COC(=O)[C@H]1[C@H]2C[C@H]3c4[nH]c5ccccc5c4CCN3C[C@H]2CC[C@@H]1O [[^3H] -rauwolscine, [^3H]rauwolscine]
Kd (α2 adrenoceptor): 0.79 nM

C=CC1=C(C)/C(=C/c2[nH]c(Cc3[nH]c(/C=C4\NC(=O)C(C)=C4C=C)c(C)c3CCC(=O)O)c(CCC(=O)O)c2C)NC1=O [bilirubin]
rate of relaxation from plasma proteins (plasma proteins [2]): 0.6 s⁻¹

Cc1ccc(N(CC2=NCCN2)c2cccc(O)c2)cc1 [phentolamine]
selectivity between α1 and α2 adrenoceptors (α1 and α2 adrenoceptors): higher selectivity to α1 adrenoceptor

COC(=O)[C@@H]1[C@H]2C[C@H]3c4[nH]c5ccccc5c4CCN3C[C@@H]2CC[C@@H]1O [yohimbine]
fraction bound to plasma proteins (plasma proteins [3]): More than 80% | affinity to α2 adrenoceptor subtypes (α2 adrenoceptor subtypes): does not distinguish between the subtypes | Binding potentials, BPND, percent-wise change (%) (α2 adrenoceptors [4]; [11]): (−54) %; also recorded: (−63) %; also recorded: (−82) %; also recorded: (−56) %; also recorded: (−51) % | Volumes of Distribution, VT, percent-wise change (%) (α2 adrenoceptors [4]; [11]): (19) %; also recorded: (5) %; also recorded: (0) %; also recorded: (16) %; also recorded: (27) % | Binding potentials, BPND, percent-wise change (%) (α2 adrenoceptors [4]; [12]): (−64) %; also recorded: (−59) %; also recorded: (−55) %; also recorded: (−47) % | Volumes of Distribution, VT, percent-wise change (%) (α2 adrenoceptors [4]; [12]): (−6) %; also recorded: (5) %; also recorded: (25) %; also recorded: (3) %; also recorded: (34) % | Binding potentials, BPND, percent-wise change (%) (α2 adrenoceptors [4]; HIP hippocampus, unlabeled yohimbine 0.3 mg/kg i.v.): (−59) %; also recorded: (−58) %; also recorded: (−50) %; also recorded: (−54) %; also recorded: (−46) % | Volumes of Distribution, VT, percent-wise change (%) (α2 adrenoceptors [4]; HIPP hippocampus, unlabeled yohimbine 0.3 mg/kg i.v.): (4) %; also recorded: (9) %; also recorded: (36) %; also recorded: (14) %; also recorded: (35) % | Binding potentials, BPND, percent-wise change (%) (α2 adrenoceptors [4]; [13]): (−58) %; also recorded: (−61) %; also recorded: (−65) %; also recorded: (−53) %; also recorded: (−49) % | Volumes of Distribution, VT, percent-wise change (%) (α2 adrenoceptors [4]; [13]): (7) %; also recorded: (5) %; also recorded: (13) %; also recorded: (18) %; also recorded: (33) % | Binding potentials, BPND, percent-wise change (%) (α2 adrenoceptors [4]; [14]): (−63) %; also recorded: (−65) %; also recorded: (−50) %; also recorded: (−61) %; also recorded: (−42) % | Volumes of Distribution, VT, percent-wise change (%) (α2 adrenoceptors [4]; [14]): (1) %; also recorded: (−6) %; also recorded: (39) %; also recorded: (−1) %; also recorded: (44) % | Binding potentials, BPND, percent-wise change (%) (α2 adrenoceptors [4]; [15]): (−71) %; also recorded: (−60) %; also recorded: (−78) %; also recorded: (−53) %; also recorded: (−58) % | Volumes of Distribution, VT, percent-wise change (%) (α2 adrenoceptors [4]; [15]): (−15) %; also recorded: (10) %; also recorded: (−6) %; also recorded: (22) %; also recorded: (23) % | Binding potentials, BPND, percent-wise change (%) (α2 adrenoceptors [4]; [16]): (−63) %; also recorded: (−60) %; also recorded: (−39) %; also recorded: (−61) %; also recorded: (−44) % | Volumes of Distribution, VT, percent-wise change (%) (α2 adrenoceptors [4]; [16]): (−1) %; also recorded: (4) %; also recorded: (53) %; also recorded: (0) %; also recorded: (40) % | Binding potentials, BPND, percent-wise change (%) (α2 adrenoceptors [4]; [17]): (−63) %; also recorded: (−62) %; also recorded: (−45) %; also recorded: (−59) %; also recorded: (−41) % | Volumes of Distribution, VT, percent-wise change (%) (α2 adrenoceptors [4]; [17]): (−2) %; also recorded: (0) %; also recorded: (47) %; also recorded: (3) %; also recorded: (45) % | Binding potentials, BPND, percent-wise change (%) (α2 adrenoceptors [4]; [18]): (−58) %; also recorded: (−57) %; also recorded: (−52) %; also recorded: (−44) % | Volumes of Distribution, VT, percent-wise change (%) (α2 adrenoceptors [4]; [18]): (7) %; also recorded: (22) %; also recorded: (15) %; also recorded: (37) % | degree of saturation, s (available receptors blocked) (α2 adrenoceptors [4]; average, 0.3 mg/kg yohimbine challenge, Extended Inhibition Plot): 56% | decline of BPND of [^11C]yohimbine in the challenge condition compared to baseline (α2 adrenoceptors [4]; on average, unlabeled yohimbine 0.3 mg/kg i.v.): 50–60% | effect of challenge on K1 of [^11C]yohimbine (α2 adrenoceptors [4]; [19]): markedly elevated | effect of challenge on k2′ of [^11C]yohimbine (α2 adrenoceptors [4]; [19]): higher | global lowering of CBF ([5]; higher dose 1.6 mg/kg): 30% | effect on CBF ([5]; low dose 0.07 mg/kg): unaffected | reduction of [^11C]mirtazepin binding ([6]; 0.3 mg/kg): 23% | reduction of [^11C]mirtazepin binding ([6]; 3.0 mg/kg): 43% | effect on blood pressure and heart rate [7]: raise blood pressure and heart rate | reduction of VT of [^11C]yohimbine (α2 adrenoceptors [8]; low dose 0.07 mg/kg): approximately 30% | reduction of VT of [^11C]yohimbine (α2 adrenoceptors [8]; pre-treatment 1.7 mg/kg): failed to decrease VT further | increase of plasma free fraction fP of [^11C]yohimbine compared to baseline (plasma proteins [9]): 30%

lipopolysaccharide [LPS]
increase of [^11C] PBR28 VT [10]: 39%
